Our source for the solubility values is US20260041639A1, “GEPOTIDACIN FORMULATION” (GLAXOSMITHKLINE INTELLECTUAL PROPERTY DEVELOPMENT LIMITED, priority 2022, published 2026).

The structures appear in SMILES notation. Values after ≈ are worked out from the molar mass of the structure shown.

This series can be described thus: Solubility of API in water. In kind it is physicochemical. The note with it: 25 °C. An excerpt:
The skilled reader will readily appreciate that the granules of the disclosure rapidly disperse. It is therefore apparent that the physical properties of the API and in particular its solubility will have no impact on the dispersion time.

For `C[C@H]1CO[C@@H]2Cn3cc(C(=O)NCc4ccc(F)cc4F)c(=O)c(O)c3C(=O)N12` [cabotegravir, (3R,6S)—N-[(2,4-difluorophenyl)methyl]-10-hydroxy-6-methyl-8,11-dioxo-4-oxa-1,7-diazatricyclo[7.4.0.03,7]trideca-9,12-diene-12-carboxamide], the solubility (usually the concentration that dissolves in the medium under given conditions) was 2.9 mg/mL (≈ 7.15 mM).
For `O=c1ccc2ncc(=O)n3c2n1C[C@H]3CN1CCC(NCc2cc3c(cn2)OCCC3)CC1` [gepotidacin, (2R)-2-({4-[(3,4-Dihydro-2H-pyrano[2,3-c]pyridin-6-ylmethyl)amino]-1-piperidinyl}methyl)-1,2-dihydro-3H,8H-2a,5,8a-triazaacenaphthylene-3,8-dione], the solubility turned out to be 175 mg/mL (≈ 390 mM).
